One block for each molecule: values may come before it. The source made the active and inactive calls. The calls are words filed in the database; no cut-off is given here.
Tests used:
[1] = biological target: T1, Sphingosine 1-phosphate receptor 1 (Homo sapiens, UniProt P21453); assay: Antagonist activity at S1P1 receptor at 25 uM; assay type: functional
[2] = biological target: T2, Sphingosine 1-phosphate receptor 4 (Homo sapiens, UniProt O95977); assay: Agonist activity at S1P4 receptor in human U2OS cells expressing VP16-GAL4 transcriptional factor and beta-arrestin/TEV protease fusion protein assessed as migration of VP16-GAL4 into nucleus by FRET based beta lactamase reporter gene assay; assay type: functional, cell-based
T2 sequence (O95977 whole entry): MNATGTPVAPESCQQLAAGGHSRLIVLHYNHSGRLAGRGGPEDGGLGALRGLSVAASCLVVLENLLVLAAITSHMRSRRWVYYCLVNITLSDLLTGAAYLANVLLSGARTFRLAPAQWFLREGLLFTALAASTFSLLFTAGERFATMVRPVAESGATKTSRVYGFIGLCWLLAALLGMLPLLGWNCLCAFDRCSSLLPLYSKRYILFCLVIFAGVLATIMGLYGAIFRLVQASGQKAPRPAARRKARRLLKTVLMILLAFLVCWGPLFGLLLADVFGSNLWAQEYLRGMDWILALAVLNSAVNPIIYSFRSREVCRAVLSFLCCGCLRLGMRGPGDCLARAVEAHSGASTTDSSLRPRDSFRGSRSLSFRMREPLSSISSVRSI

[3] = biological target: T3, Sphingosine 1-phosphate receptor 5 (Homo sapiens, UniProt Q9H228); assay: Agonist activity at S1P5 receptor relative to control; assay type: functional
T3 sequence (Q9H228 whole entry): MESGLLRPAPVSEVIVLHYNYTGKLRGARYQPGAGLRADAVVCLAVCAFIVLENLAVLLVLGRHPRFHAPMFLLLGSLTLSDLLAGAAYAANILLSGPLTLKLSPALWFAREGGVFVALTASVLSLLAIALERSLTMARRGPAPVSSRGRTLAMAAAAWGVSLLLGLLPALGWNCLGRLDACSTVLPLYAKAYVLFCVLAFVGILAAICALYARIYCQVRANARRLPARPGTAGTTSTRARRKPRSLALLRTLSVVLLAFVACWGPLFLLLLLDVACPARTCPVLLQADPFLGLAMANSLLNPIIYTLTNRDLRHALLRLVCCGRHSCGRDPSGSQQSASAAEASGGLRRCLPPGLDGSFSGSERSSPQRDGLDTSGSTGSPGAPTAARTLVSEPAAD

[4] = biological target: T3, Sphingosine 1-phosphate receptor 5; assay: Agonist activity at S1P5 receptor; assay type: functional
[5] = biological target: T4, Sphingosine 1-phosphate receptor 2 (Homo sapiens, UniProt O95136); assay: Agonist activity at S1P2 receptor at 25 uM; assay type: functional
T4 sequence (O95136 whole entry): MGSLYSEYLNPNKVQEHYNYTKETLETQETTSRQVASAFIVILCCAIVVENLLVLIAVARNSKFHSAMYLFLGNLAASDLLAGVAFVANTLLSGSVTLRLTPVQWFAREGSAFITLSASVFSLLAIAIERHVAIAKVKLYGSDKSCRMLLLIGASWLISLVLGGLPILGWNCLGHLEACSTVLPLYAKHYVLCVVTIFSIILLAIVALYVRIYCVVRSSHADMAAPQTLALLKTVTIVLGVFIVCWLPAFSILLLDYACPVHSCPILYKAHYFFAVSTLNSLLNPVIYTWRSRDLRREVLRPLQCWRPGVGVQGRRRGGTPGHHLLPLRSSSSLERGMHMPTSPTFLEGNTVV

[6] = biological target: Sphingosine 1-phosphate receptor 3 (Homo sapiens) (UniProt Q99500); assay: Agonist activity at S1P3 receptor at 25 uM; assay type: functional
Sphingosine 1-phosphate receptor 3 (Homo sapiens), sequence (Q99500 whole entry): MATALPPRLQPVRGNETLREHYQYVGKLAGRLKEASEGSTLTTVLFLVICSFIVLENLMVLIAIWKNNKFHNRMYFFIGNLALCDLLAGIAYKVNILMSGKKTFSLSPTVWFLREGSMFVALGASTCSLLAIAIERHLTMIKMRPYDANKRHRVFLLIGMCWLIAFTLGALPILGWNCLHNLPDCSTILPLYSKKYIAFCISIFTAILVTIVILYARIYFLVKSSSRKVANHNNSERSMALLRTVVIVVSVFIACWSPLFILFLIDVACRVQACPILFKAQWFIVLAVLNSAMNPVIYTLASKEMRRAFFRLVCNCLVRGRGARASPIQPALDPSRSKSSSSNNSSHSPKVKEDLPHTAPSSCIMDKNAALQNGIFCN

[7] = biological target: T1, Sphingosine 1-phosphate receptor 1; assay: Agonist activity at S1P1 receptor; assay type: functional
[8] = biological target: T5, Sphingosine 1-phosphate receptor 4 (Homo sapiens) (UniProt O95977); assay: Agonist activity at S1P4 receptor in human U2OS cells expressing VP16-GAL4 transcriptional factor and beta-arrestin/TEV protease fusion protein assessed as migration of VP16-GAL4 into nucleus at 25 uM by FRET based beta lactamase reporter gene assay; assay type: functional, cell-based
T5 sequence (whole entry): T2 sequence (O95977 whole entry)

[9] = biological target: T5, Sphingosine 1-phosphate receptor 4 (Homo sapiens); assay: Agonist activity at S1P4 receptor relative to control; assay type: functional
[10] = test system: UOS2; assay: Selectivity ratio of EC50 for S1P5 receptor to EC50 for S1P4 receptor in human […] cells; assay type: cell-based
[11] = biological target: T1, Sphingosine 1-phosphate receptor 1; assay: Agonist activity at S1P1 receptor at 25 uM; assay type: functional
[12] = biological target: T1, Sphingosine 1-phosphate receptor 1; assay: Agonist activity at S1P1 receptor at 8.3 uM; assay type: functional
[13] = biological target: T3, Sphingosine 1-phosphate receptor 5; assay: Agonist activity at S1P5 receptor at 8.3 uM; assay type: functional
[14] = biological target: T3, Sphingosine 1-phosphate receptor 5; assay: Agonist activity at S1P5 receptor at 25 uM; assay type: functional
[15] = test system: UOS2; assay: Selectivity ratio of EC50 for S1P1 receptor to EC50 for S1P4 receptor in human […] cells; assay type: cell-based
[16] = biological target: T1, Sphingosine 1-phosphate receptor 1; assay: Agonist activity at S1P1 receptor relative to control; assay type: functional
[17] = biological target: T4, Sphingosine 1-phosphate receptor 2; assay: Agonist activity at S1P2 receptor; assay type: functional

T1 sequence (P21453 whole entry, the tested form may be a part): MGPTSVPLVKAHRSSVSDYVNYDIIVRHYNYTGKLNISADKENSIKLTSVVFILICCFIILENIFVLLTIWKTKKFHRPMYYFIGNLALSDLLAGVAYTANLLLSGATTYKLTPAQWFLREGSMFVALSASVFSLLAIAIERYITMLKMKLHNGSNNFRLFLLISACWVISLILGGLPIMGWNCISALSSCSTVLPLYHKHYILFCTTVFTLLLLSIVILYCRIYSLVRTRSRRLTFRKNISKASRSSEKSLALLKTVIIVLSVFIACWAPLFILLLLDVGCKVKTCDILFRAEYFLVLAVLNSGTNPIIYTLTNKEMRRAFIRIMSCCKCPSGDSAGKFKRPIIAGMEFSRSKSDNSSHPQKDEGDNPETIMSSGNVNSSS

SMILES: CCCCCCCCc1ccc([C@H]2C[C@H](COP(=O)(O)O)N[C@@H]2CO)cc1
- EC50 [7]: > 10 µM

SMILES: C/N=C1\O/C(=C\c2cc(C)n(-c3ccccc3F)c2C)C(=O)N1C
- Activity [8]: inactive

SMILES: COCC/N=C1\S/C(=C\c2cc(C)n(-c3ccc(F)cc3F)c2C)C(=O)N1C
- Ratio EC50 [10]: 37
- EC50 [2]: 0.056 µM
- EC50 [4]: 2.1 µM
- Activity [11]: inactive
- Activity [5]: inactive
- Activity [6]: inactive

SMILES: CC/N=C1\S/C(=C\c2cc(C)n(-c3ncccc3F)c2C)C(=O)N1CC
- EC50 [2]: 5.4 µM
- Efficacy [9]: 70%

SMILES: CC/N=C1\NC(=O)/C(=C/c2cc(C)n(-c3ccccc3F)c2C)S1
- Activity [8]: inactive

SMILES: N[C@H](CNC(=O)c1cc2c(-c3ccccc3Cc3ccccc3)cccc2[nH]1)C(=O)O
- EC50 [2]: 0.01 µM
- EC50 [7]: > 10 µM
- EC50 [4]: 2.4 µM

SMILES: CCC/N=C1\S/C(=C\c2cc(C)n(-c3ccccc3F)c2C)C(=O)N1CCC
- Activity [8]: inactive

SMILES: CCC/N=C1\NC(=O)/C(=C/c2cc(C)n(-c3ccccc3F)c2C)S1
- Activity [8]: inactive

SMILES: C/N=C1/NC(=O)/C(=C/c2ccn(Cc3ccccc3)c2)S1
- Activity [8]: inactive

SMILES: C/N=C1/NC(=O)/C(=C/c2ccn(-c3ccccc3F)c2)S1
- Activity [8]: inactive

SMILES: C/N=C1/NC(=O)/C(=C/c2cnn(-c3ccc(F)cc3F)c2)S1
- Activity [8]: inactive

SMILES: C/N=C1/NC(=O)/C(=C/c2c(C)nn(-c3ccc(F)cc3)c2C)S1
- Activity [8]: inactive

SMILES: Cc1cc(/C=C2\SC(=N)NC2=O)c(C)n1-c1ccccc1F
- Activity [8]: inactive

SMILES: C/N=C1/NC(=O)/C(=C/c2cnn(-c3ccccc3F)c2)S1
- Activity [8]: inactive

SMILES: C/N=C1/NC(=O)/C(=C/c2cc(C)n(-c3ccc(F)cc3F)c2C)S1
- EC50 [2]: 1 µM

SMILES: C/N=C1/NC(=O)/C(=C/c2cc(C)n(-c3ccccc3F)c2C)S1
- EC50 [2]: 3.6 µM

SMILES: CCCCCCCCc1ccc2nc([C@@H](N)COP(=O)(O)O)[nH]c2c1
- EC50 [2]: 0.036 µM
- EC50 [7]: 0.021 µM
- EC50 [4]: 0.0082 µM

SMILES: CC/N=C1\S/C(=C\c2cc(C)n(-c3ccc(F)cc3F)c2C)C(=O)N1CC
- EC50 [2]: 0.104 µM
- EC50 [7]: 0.816 µM
- EC50 [4]: 6.18 µM
- Activity [5]: inactive
- Activity [6]: inactive

SMILES: Cc1cc(/C=C2\S/C(=N\c3ccccc3)NC2=O)c(C)n1-c1ccccc1F
- Activity [8]: inactive

SMILES: C/N=C1/NC(=O)/C(=C/c2cnn(-c3ccc(F)cc3)c2C)S1
- EC50 [2]: 3.8 µM

SMILES: Cc1cc(/C=C2\S/C(=N\c3ccccn3)NC2=O)c(C)n1-c1ccccc1F
- EC50 [2]: 2.1 µM
- Efficacy [9]: 70%

SMILES: C/N=C1\S/C(=C\c2cc(C)n(-c3ccc(F)cc3F)c2C)C(=O)N1CCOC
- EC50 [2]: 1.7 µM

SMILES: CCCC/N=C1\S/C(=C\c2cc(C)n(-c3ccccc3F)c2C)C(=O)N1CCCC
- Activity [8]: inactive

SMILES: C/N=C1/NC(=O)/C(=C/c2c(C)n(Cc3ccccc3)c3ccccc23)S1
- Activity [8]: inactive

SMILES: Cc1cc(/C=C2\S/C(=N\C(C)C)N(C(C)C)C2=O)c(C)n1-c1ccccc1F
- Activity [8]: inactive

More lines, main results first:

- inhibition [1]: 85%
- EC50 [2]: 0.068 µM
- Efficacy [3]: 80%
- EC50 [4]: 0.196 µM
- Activity [5]: inactive
- Activity [6]: inactive
SMILES: COCC/N=C1\S/C(=C\c2cc(C)n(Cc3ccccc3)c2C)C(=O)N1C

- EC50 [2]: 0.205 µM
- EC50 [7]: 0.819 µM
- Efficacy [3]: 70%
- EC50 [4]: 0.721 µM
- Activity [5]: inactive
- Activity [6]: inactive
SMILES: C/N=C1\S/C(=C\c2cc(C)n(-c3ccccc3F)c2C)C(=O)N1C

- Activity [8]: inactive
SMILES: C/N=C1\S/C(=C\c2cc(C)n(-c3ccccc3Cl)c2C)C(=O)N1C

- Activity [8]: inactive
SMILES: CC/N=C1\S/C(=C\c2cc(C)n(CCc3ccccc3)c2C)C(=O)N1CC

- EC50 [2]: 3.1 µM
- Efficacy [9]: 70%
SMILES: C/N=C1\S/C(=C\c2cc(C)n(-c3ncccc3F)c2C)C(=O)N1C

- Activity [8]: inactive
SMILES: CC/N=C1\S/C(=C\c2cc(C)n(-c3cccc4ccccc34)c2C)C(=O)N1CC

- EC50 [2]: 0.092 µM
- EC50 [7]: 0.034 µM
- EC50 [4]: 0.034 µM
- Efficacy [5]: 120%
- Efficacy [6]: 70%
SMILES: C/N=C1\S/C(=C\c2cc(C)n(Cc3c(F)cccc3F)c2C)C(=O)N1C

- EC50 [2]: 0.147 µM
- EC50 [7]: 0.287 µM
- EC50 [4]: 0.037 µM
- Activity [5]: inactive
- Activity [6]: inactive
SMILES: C/N=C1\S/C(=C\c2cc(C)n(Cc3ccc(F)cc3F)c2C)C(=O)N1C

- Activity [8]: inactive
SMILES: C/N=C1\S/C(=C\c2cc(C)n(-c3ccc(C)cc3C)c2C)C(=O)N1C

- EC50 [2]: 0.314 µM
- EC50 [7]: 0.018 µM
- EC50 [4]: 0.022 µM
- Activity [5]: inactive
- Activity [6]: inactive
SMILES: CC/N=C1\S/C(=C\c2cc(C)n(Cc3c(F)cccc3F)c2C)C(=O)N1CC

- Efficacy [12]: 20%
- Efficacy [13]: 60%
- EC50 [2]: 0.306 µM
- Activity [5]: inactive
- Activity [6]: inactive
SMILES: Cc1cc(/C=C2\S/C(=N\CCO)N(C)C2=O)c(C)n1-c1ccccc1F

- Activity [8]: inactive
SMILES: Cc1cc(/C=C2\SC(=O)N(C)C2=O)c(C)n1-c1ccccc1F

- Activity [8]: inactive
SMILES: C/N=C1\S/C(=C\c2cc(C)n(-c3cccc4ccccc34)c2C)C(=O)N1C

- EC50 [2]: 0.25 µM
- Activity [11]: inactive
- Activity [5]: inactive
- Activity [6]: inactive
- Activity [14]: inactive
SMILES: CC/N=C1\S/C(=C\c2cc(C)n(-c3ccccc3F)c2C)C(=O)N1CC

- EC50 [2]: 2.8 µM
SMILES: Cc1cc(/C=C2\S/C(=N\c3ccccc3)N(C)C2=O)c(C)n1-c1ccccc1F

- EC50 [2]: 1.6 µM
- Efficacy [9]: 60%
SMILES: C/N=C1\S/C(=C\c2cc(C)n(-c3cccc(F)c3)c2C)C(=O)N1C

- EC50 [2]: 0.072 µM
- EC50 [7]: 0.25 µM
- EC50 [4]: 0.051 µM
- Efficacy [5]: 60%
- Efficacy [6]: 25%
SMILES: C/N=C1\S/C(=C\c2cc(C)n(Cc3ccccc3F)c2C)C(=O)N1C

- EC50 [2]: 0.21 µM
- EC50 [7]: 4.47 µM
- Activity [5]: inactive
- Activity [6]: inactive
- Activity [14]: inactive
SMILES: C/N=C1\S/C(=C\c2cc(C)n(-c3ccc(F)cc3F)c2C)C(=O)N1C
- Ratio EC50 [15]: 21

- EC50 [2]: 0.66 µM
- Efficacy [9]: 20%
SMILES: C/N=C1\S/C(=C\c2cc(C)n(CCc3ccccc3)c2C)C(=O)N1C

- Efficacy [16]: 70%
- EC50 [2]: 0.433 µM
- EC50 [7]: 1.8 µM
- Efficacy [3]: 50%
- EC50 [4]: 0.652 µM
- Activity [5]: inactive
- Activity [6]: inactive
SMILES: C/N=C1\S/C(=C\c2cc(C)n(-c3ccc(F)cc3)c2C)C(=O)N1C

- EC50 [2]: 0.44 µM
- EC50 [7]: 3.01 µM
- EC50 [4]: 3.4 µM
- Activity [5]: inactive
- Activity [6]: inactive
SMILES: C/N=C1\S/C(=C\c2cc(C)n(-c3ccc(Cl)cc3F)c2C)C(=O)N1C

- Activity [8]: inactive
SMILES: C/N=C1\S/C(=C\c2cc(C)n(-c3cc(C)ccc3OC)c2C)C(=O)N1C

- EC50 [2]: 0.262 µM
- EC50 [7]: 0.72 µM
- EC50 [17]: 3.65 µM
- EC50 [4]: 0.144 µM
- Activity [6]: inactive
SMILES: C/N=C1\S/C(=C\c2cc(C)n(Cc3ccccc3)c2C)C(=O)N1C

- EC50 [2]: 0.602 µM
- EC50 [7]: 0.068 µM
- EC50 [4]: 0.237 µM
- Activity [5]: inactive
- Activity [6]: inactive
SMILES: CC/N=C1\S/C(=C\c2cc(C)n(-c3ccccc3)c2C)C(=O)N1CC

- EC50 [2]: 0.396 µM
SMILES: Cc1cc(/C=C2\S/C(=N\CCO)N(C)C2=O)c(C)n1Cc1ccccc1

- Activity [8]: inactive
SMILES: COCC/N=C1\S/C(=C\c2cc(C)n(Cc3ccccc3)c2C)C(=O)N1CCOC

- EC50 [2]: 1.8 µM
SMILES: C/N=C1\S/C(=C\c2cc(C)n(-c3ccccn3)c2C)C(=O)N1C

- EC50 [2]: 3.2 µM
- Efficacy [9]: 50%
SMILES: C/N=C1\S/C(=C\c2cc(C)n(-c3ccc(F)c(C#N)c3)c2C)C(=O)N1C

- Activity [8]: inactive
SMILES: C/N=C1\S/C(=C\c2cc(C)n(-c3ccccc3C)c2C)C(=O)N1C

- Activity [8]: inactive
SMILES: C/N=C1\S/C(=C\c2cc(C)n(-c3ccc(OC)c(C(F)(F)F)c3)c2C)C(=O)N1C

- Activity [8]: inactive
SMILES: C/N=C1\S/C(=C\c2cc(C)n(-c3ccccc3Br)c2C)C(=O)N1C

— ChEMBL document CHEMBL1909558, “Discovery, synthesis and SAR analysis of novel selective small molecule S1P4-R agonists based on a (2Z,5Z)-5-((pyrrol-3-yl)methylene)-3-alkyl-2-(alkylimino)thiazolidin-4-one chemotype” (Bioorg Med Chem Lett, 2011)
